# Reference: publication PMC9629493, “Crystal structure of DNA polymerase I from Thermus phage G20c” (Acta Crystallographica. Section D, Structural Biology, 2022)
# Experiments:
# ExnV1 [1] = biological target: T1, ExnV1 (uncultured virus, UniProt Z9YD31SC24); assay: X-ray crystal structure, […] A; type: binding; conditions: TMP and MgCl2 added before concentration; 5 mM TMP, 10 mM MgCl2 in cryo-solution; 100 mM Bicine pH 9.3; exonuclease active site
# T1 construct: full 314-residue 3'-5' exonuclease domain protein, N-terminal His6 tag (pJOE5751.1, pLEI447.1), E. coli JM109, about 36 kDa, no oligomerization
# ExnV1 [2] = biological target: T1, ExnV1; assay: differential scanning fluorimetry; type: binding; conditions: with MgCl2
compound,measurement,setting,value
Cc1cn([C@H]2C[C@H](O)[C@@H](COP(=O)(O)O)O2)c(=O)[nH]c1=O [thymidine monophosphate],"X-ray crystal structure, 2.19 A",ExnV1 [1],the second O atom of the phosphate group of the substrate nucleotide
same,thermal stabilization,ExnV1 [2],Differential scanning fluorimetry showed that ExnV1 was stabilized by thymidine monophosphate (TMP) and MgCl2
